Assays:
[1] = tested on: Curvularia australiensis; experiment: Antimicrobial activity against Curvularia australiensis assessed as growth inhibition by microdilution method; format: functional
[2] = tested on: Aspergillus niger; experiment: Antimicrobial activity against Aspergillus niger assessed as growth inhibition by microdilution method; format: functional
[3] = tested on: Alternaria alternata; experiment: Antimicrobial activity against Alternaria alternata assessed as growth inhibition by microdilution method; format: functional
[4] = tested on: Aspergillus flavus; experiment: Antimicrobial activity against Aspergillus flavus assessed as growth inhibition by microdilution method; format: functional
[5] = tested on: Trichoderma reesei; experiment: Antimicrobial activity against Trichoderma reesei assessed as growth inhibition by microdilution method; format: functional
[6] = tested on: Escherichia coli; experiment: Antimicrobial activity against Escherichia coli assessed as growth inhibition by microdilution method
[7] = tested on: Bacillus subtilis; experiment: Antimicrobial activity against Bacillus subtilis assessed as growth inhibition by microdilution method
[8] = tested on: Staphylococcus aureus; experiment: Antimicrobial activity against Staphylococcus aureus assessed as growth inhibition by microdilution method
[9] = tested on: Klebsiella aerogenes; experiment: Antimicrobial activity against Enterobacter aerogenes assessed as growth inhibition by microdilution method
[10] = tested on: Streptococcus pyogenes; experiment: Antimicrobial activity against Streptococcus pyogenes assessed as growth inhibition by microdilution method
[11] = tested on: Salmonella typhimurium; experiment: Antimicrobial activity against Salmonella enterica subsp. enterica serovar Typhimurium assessed as growth inhibition by microdilution method

MIC [1] | MIC [2] | MIC [3] | MIC [4] | MIC [5] | MIC [6] | MIC [7] | MIC [8] | MIC [9] | MIC [10] | MIC [11] | Structure (SMILES)
500 µg/mL | 1000 µg/mL | 1000 µg/mL | 500 µg/mL | 500 µg/mL | 500 µg/mL | 1000 µg/mL | 1000 µg/mL | 500 µg/mL | 500 µg/mL | 500 µg/mL | COc1ccc2nc3c(cc2c1)C=NN=C(Nc1c(C)cccc1C)S3
500 µg/mL | 1000 µg/mL | 250 µg/mL | 1000 µg/mL | 500 µg/mL | 500 µg/mL | 1000 µg/mL | 1000 µg/mL | 1000 µg/mL | 1000 µg/mL | 500 µg/mL | COc1ccc2nc3c(cc2c1)C=NN=C(Nc1ccc(C)cc1C)S3
1000 µg/mL | 500 µg/mL | 500 µg/mL | 500 µg/mL | 500 µg/mL | 500 µg/mL | 500 µg/mL | 500 µg/mL | 500 µg/mL | 500 µg/mL | 500 µg/mL | CCc1ccc(NC2=NN=Cc3cc4cc(OC)ccc4nc3S2)cc1
1000 µg/mL | 1000 µg/mL | 1000 µg/mL | 1000 µg/mL | 500 µg/mL | 1000 µg/mL | 1000 µg/mL | 1000 µg/mL | 125 µg/mL | 1000 µg/mL | 500 µg/mL | COc1ccc2nc3c(cc2c1)C=NN=C(NCc1ccccc1)S3
1000 µg/mL | 1000 µg/mL | 1000 µg/mL | 500 µg/mL | 1000 µg/mL | 500 µg/mL | 500 µg/mL | 500 µg/mL | 1000 µg/mL | 500 µg/mL | 500 µg/mL | COc1ccc2nc3c(cc2c1)C=NN=C(NCCN1CCOCC1)S3
1000 µg/mL | 250 µg/mL | 1000 µg/mL | 125 µg/mL | 125 µg/mL | 1000 µg/mL | 500 µg/mL | 500 µg/mL | 500 µg/mL | 500 µg/mL | 1000 µg/mL | Cc1ccc2nc3c(cc2c1)C=NN=C(Nc1ccccc1C)S3
1000 µg/mL | 1000 µg/mL | 500 µg/mL | 1000 µg/mL | 500 µg/mL | 1000 µg/mL | 1000 µg/mL | > 1000 µg/mL | 60 µg/mL | 1000 µg/mL | 60 µg/mL | Cc1ccc(NC2=NN=Cc3cc4cc(C)ccc4nc3S2)cc1
1000 µg/mL | 1000 µg/mL | 500 µg/mL | 1000 µg/mL | 250 µg/mL | 1000 µg/mL | 1000 µg/mL | 1000 µg/mL | 1000 µg/mL | 1000 µg/mL | 1000 µg/mL | Cc1ccc2nc3c(cc2c1)C=NN=C(Nc1c(C)cccc1C)S3
500 µg/mL | 1000 µg/mL | 500 µg/mL | 500 µg/mL | 125 µg/mL | 500 µg/mL | 500 µg/mL | 500 µg/mL | 500 µg/mL | 500 µg/mL | 500 µg/mL | Cc1ccc(NC2=NN=Cc3cc4cc(C)ccc4nc3S2)c(C)c1
1000 µg/mL | 500 µg/mL | 500 µg/mL | 1000 µg/mL | 500 µg/mL | > 1000 µg/mL | 1000 µg/mL | > 1000 µg/mL | > 1000 µg/mL | > 1000 µg/mL | > 1000 µg/mL | CCc1ccc(NC2=NN=Cc3cc4cc(C)ccc4nc3S2)cc1
1000 µg/mL | 1000 µg/mL | 1000 µg/mL | > 1000 µg/mL | 500 µg/mL | 1000 µg/mL | 1000 µg/mL | 1000 µg/mL | 1000 µg/mL | 1000 µg/mL | 1000 µg/mL | Cc1ccc2nc3c(cc2c1)C=NN=C(NCc1ccccc1)S3
500 µg/mL | 500 µg/mL | 500 µg/mL | 500 µg/mL | 250 µg/mL | 500 µg/mL | > 1000 µg/mL | 1000 µg/mL | 1000 µg/mL | > 1000 µg/mL | 1000 µg/mL | Cc1ccc2nc3c(cc2c1)C=NN=C(NCCN1CCOCC1)S3
500 µg/mL | 500 µg/mL | 500 µg/mL | 500 µg/mL | 1000 µg/mL | 500 µg/mL | 500 µg/mL | 500 µg/mL | 125 µg/mL | 60 µg/mL | 60 µg/mL | COc1ccc2nc3c(cc2c1)C=NN=C(Nc1ccccc1)S3
500 µg/mL | 500 µg/mL | 125 µg/mL | 500 µg/mL | 250 µg/mL | 1000 µg/mL | 1000 µg/mL | 500 µg/mL | > 1000 µg/mL | 500 µg/mL | > 1000 µg/mL | COc1ccc2nc3c(cc2c1)C=NN=C(Nc1ccccc1F)S3
500 µg/mL | 1000 µg/mL | 500 µg/mL | 500 µg/mL | 1000 µg/mL | 500 µg/mL | 60 µg/mL | 500 µg/mL | 500 µg/mL | 500 µg/mL | 1000 µg/mL | COc1ccc2nc3c(cc2c1)C=NN=C(Nc1cccc(F)c1)S3
1000 µg/mL | 1000 µg/mL | 60 µg/mL | > 1000 µg/mL | 500 µg/mL | 500 µg/mL | 500 µg/mL | 500 µg/mL | 60 µg/mL | 500 µg/mL | 250 µg/mL | COc1ccc2nc3c(cc2c1)C=NN=C(Nc1ccc(F)cc1)S3
500 µg/mL | 500 µg/mL | 500 µg/mL | 500 µg/mL | 500 µg/mL | 500 µg/mL | 30 µg/mL | 1000 µg/mL | 125 µg/mL | 30 µg/mL | 60 µg/mL | COc1ccc2nc3c(cc2c1)C=NN=C(Nc1ccccc1Cl)S3
500 µg/mL | 500 µg/mL | 60 µg/mL | 500 µg/mL | 500 µg/mL | 30 µg/mL | 60 µg/mL | 500 µg/mL | 250 µg/mL | 30 µg/mL | 500 µg/mL | COc1ccc2nc3c(cc2c1)C=NN=C(Nc1cccc(Cl)c1)S3
500 µg/mL | 500 µg/mL | 30 µg/mL | 500 µg/mL | 250 µg/mL | 250 µg/mL | 60 µg/mL | 500 µg/mL | 500 µg/mL | 500 µg/mL | 1000 µg/mL | COc1ccc2nc3c(cc2c1)C=NN=C(Nc1ccc(Cl)cc1)S3
1000 µg/mL | 1000 µg/mL | 1000 µg/mL | 500 µg/mL | 500 µg/mL | 500 µg/mL | 1000 µg/mL | 1000 µg/mL | 1000 µg/mL | 1000 µg/mL | 125 µg/mL | COc1ccc2nc3c(cc2c1)C=NN=C(Nc1ccccc1C)S3
500 µg/mL | > 1000 µg/mL | 500 µg/mL | 1000 µg/mL | 1000 µg/mL | 500 µg/mL | 250 µg/mL | 500 µg/mL | 500 µg/mL | 500 µg/mL | 500 µg/mL | COc1ccc2nc3c(cc2c1)C=NN=C(Nc1ccc(C)cc1)S3
> 1000 µg/mL | 1000 µg/mL | 1000 µg/mL | 500 µg/mL | 500 µg/mL | > 1000 µg/mL | 1000 µg/mL | 1000 µg/mL | 500 µg/mL | 500 µg/mL | 500 µg/mL | Cc1ccc2nc3c(cc2c1)C=NN=C(Nc1ccccc1)S3
> 1000 µg/mL | > 1000 µg/mL | 1000 µg/mL | > 1000 µg/mL | 1000 µg/mL | 1000 µg/mL | 1000 µg/mL | 500 µg/mL | 60 µg/mL | 1000 µg/mL | 1000 µg/mL | Cc1ccc2nc3c(cc2c1)C=NN=C(Nc1ccccc1F)S3
> 1000 µg/mL | 1000 µg/mL | 500 µg/mL | 1000 µg/mL | 1000 µg/mL | > 1000 µg/mL | > 1000 µg/mL | > 1000 µg/mL | > 1000 µg/mL | > 1000 µg/mL | > 1000 µg/mL | Cc1ccc2nc3c(cc2c1)C=NN=C(Nc1cccc(F)c1)S3
> 1000 µg/mL | 1000 µg/mL | 1000 µg/mL | > 1000 µg/mL | 1000 µg/mL | 500 µg/mL | 250 µg/mL | 250 µg/mL | 125 µg/mL | 500 µg/mL | 250 µg/mL | Cc1ccc2nc3c(cc2c1)C=NN=C(Nc1ccc(F)cc1)S3
1000 µg/mL | > 1000 µg/mL | 1000 µg/mL | 500 µg/mL | 1000 µg/mL | 500 µg/mL | 1000 µg/mL | 1000 µg/mL | 60 µg/mL | 500 µg/mL | 1000 µg/mL | Cc1ccc2nc3c(cc2c1)C=NN=C(Nc1ccccc1Cl)S3
1000 µg/mL | 1000 µg/mL | 500 µg/mL | 1000 µg/mL | 500 µg/mL | 1000 µg/mL | 1000 µg/mL | 1000 µg/mL | 250 µg/mL | > 1000 µg/mL | 1000 µg/mL | Cc1ccc2nc3c(cc2c1)C=NN=C(Nc1cccc(Cl)c1)S3
500 µg/mL | 500 µg/mL | 30 µg/mL | 1000 µg/mL | 500 µg/mL | > 1000 µg/mL | 1000 µg/mL | 1000 µg/mL | 1000 µg/mL | > 1000 µg/mL | > 1000 µg/mL | Cc1ccc2nc3c(cc2c1)C=NN=C(Nc1ccc(Cl)cc1)S3

Reference: ChEMBL document CHEMBL3046732, “Synthesis and biological evaluation of new [1,3,4]thiadiazepino[7,6-b]quinolin-2-amines as potent anti-microbial agents” (2013)
